The values that follow come from paper PMC10675840, “Structure-function analysis of ceTIR-1/hSARM1 explains the lack of Wallerian axonal degeneration in C. elegans” (Cell reports, 2023).

Changes are numbered by the printed parent chain.

Common to all, as to assay: HPLC NAD+ consumption, Michaelis-Menten fit
Holding throughout (assay type): biochemical
Common to all, as to settings: […] C, […] min, pH […]

In assay [1] the target is T1, ceTIR-1 (Caenorhabditis elegans, UniProt Q86DA5, R828K).
T1 construct: gene tir-1; near-intact ARM-SAM-SAM-TIR, residues 162-872 (HMD...QQR), N-terminal 6xHis + TEV site, HEK293F expression, mostly 9-mer ring, partly dissociated
T1 sequence (Q86DA5 216-926 R828K): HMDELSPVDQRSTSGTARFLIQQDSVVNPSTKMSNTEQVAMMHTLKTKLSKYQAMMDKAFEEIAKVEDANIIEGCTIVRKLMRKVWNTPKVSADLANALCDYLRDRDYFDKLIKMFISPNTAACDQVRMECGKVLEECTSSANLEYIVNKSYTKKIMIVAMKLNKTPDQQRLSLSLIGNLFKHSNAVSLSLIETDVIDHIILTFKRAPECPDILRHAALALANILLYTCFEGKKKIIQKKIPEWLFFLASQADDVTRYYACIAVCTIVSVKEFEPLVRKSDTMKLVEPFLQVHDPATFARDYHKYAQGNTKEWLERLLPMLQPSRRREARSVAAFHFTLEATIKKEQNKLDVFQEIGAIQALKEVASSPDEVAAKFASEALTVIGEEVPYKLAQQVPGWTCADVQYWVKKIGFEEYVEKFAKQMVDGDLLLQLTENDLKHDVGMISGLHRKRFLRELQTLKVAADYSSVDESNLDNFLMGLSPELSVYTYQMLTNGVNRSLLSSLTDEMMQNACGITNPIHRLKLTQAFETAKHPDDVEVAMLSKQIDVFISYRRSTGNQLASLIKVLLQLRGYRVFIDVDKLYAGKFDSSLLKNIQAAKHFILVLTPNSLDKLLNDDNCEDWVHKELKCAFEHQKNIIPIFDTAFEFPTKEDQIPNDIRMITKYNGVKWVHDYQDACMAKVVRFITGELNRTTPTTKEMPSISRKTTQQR

In assay [2] the target is T2, ceTIR-1 (Caenorhabditis elegans, UniProt Q86DA5, F863W).
T2 construct: gene tir-1; near-intact ARM-SAM-SAM-TIR, residues 162-872 (HMD...QQR), N-terminal 6xHis + TEV site, HEK293F expression, mostly 9-mer ring, partly dissociated
T2 sequence (Q86DA5 216-926 F863W): T1 sequence (Q86DA5 216-926 R828K) with K613R, F648W

Assay [3] deals with T3, ceTIR-1 (Caenorhabditis elegans, UniProt Q86DA5, D888E).
T3 construct: gene tir-1; near-intact ARM-SAM-SAM-TIR, residues 162-872 (HMD...QQR), N-terminal 6xHis + TEV site, HEK293F expression, mostly 9-mer ring, partly dissociated
T3 sequence (Q86DA5 216-926 D888E): T1 sequence (Q86DA5 216-926 R828K) with K613R, D673E

Consider `NC(=O)c1ccc[n+]([C@@H]2O[C@H](COP(=O)(O)OP(=O)(O)OC[C@H]3O[C@@H](n4cnc5c(N)ncnc54)[C@H](O)[C@@H]3O)[C@@H](O)[C@H]2O)c1` [NAD^+], for which the Km entry at ceTIR-1 [1], at ceTIR-1 [2] and at ceTIR-1 [3] was “none of these substitutions had any significant effect on Km” each time.
